Measured values published in patent US20230271932A1, “SMALL MOLECULE COVALENT ACTIVATORS OF UCP1” (Dana-Farber Cancer Institute, Inc., priority 2020, published 2023).

Target: T1, UCP1 (Mus musculus, UniProt P12242)
T1 construct: Cellular oxygen consumption and UCP1-rependent respiration of primary brown adipocytes; endogenous in cells; host or cells: primary brown adipocytes differentiated from the interscapular brown adipose stromal vascular fraction of 2- to 6-day-old pups
T1 sequence (P12242 1-307): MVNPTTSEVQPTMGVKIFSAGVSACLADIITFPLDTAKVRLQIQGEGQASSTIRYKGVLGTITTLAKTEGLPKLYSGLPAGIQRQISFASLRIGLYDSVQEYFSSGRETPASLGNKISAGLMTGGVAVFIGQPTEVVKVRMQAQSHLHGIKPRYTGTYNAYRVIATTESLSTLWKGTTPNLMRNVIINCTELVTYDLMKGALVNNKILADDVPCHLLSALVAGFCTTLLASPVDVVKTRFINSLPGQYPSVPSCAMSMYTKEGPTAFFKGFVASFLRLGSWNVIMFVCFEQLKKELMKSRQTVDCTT
Experiment: UCP1-dependent respiration in primary brown adipocytes (Seahorse XF24 oxygen consumption)
Type: cell-based
Conditions: wild-type primary brown adipocytes; MYF compounds at 100 uM
Method: Primary brown adipocyte preparation and differentiation. Interscapular brown adipose stromal vascular fraction was obtained from 2- to 6-day-old pups as described in PMID: 30022159. Interscapular brown adipose was dissected, washed in PBS, minced, and digested for 45 min at 37° C. in PBS containing 1.5 mg ml^−1 collagenase B, 123 mM NaCl, 5 mM KCl, 1.3 mM CaCl2, 5 mM glucose, 100 mM HEPES, and 4% essentially fatty-acid-free BSA. Tissue suspension was filtered through a 40 µm cell strainer and centrifuged at 600 g for 5 min to pellet the SVF. The cell pellet was resuspended in adipocyte culture medium and plated. Cells were maintained at 37° C. in 10% CO2. Primary brown pre-adipocytes were counted and plated in the evening, 12 h before differentiation at 15,000 cells per well of a seahorse plate. Pre-adipocyte plating was scaled according to surface area. […]
Direct measure of UCP1-dependent respiration in brown adipocytes. […] Basal respiration was determined to be the oxygen consumption in the presence of substrate (1 mM sodium pyruvate) alone. Following determination of basal respiration, MYF compounds at 100 uM or vehicle was added to the cells and the respiration response measured immediately. […] Maximal respiration capacity was determined following addition of DNP (2 mM). […]

UCP-1-dependent respiration | Compound
activation | C=CC(=O)Nc1cc(-c2ccncc2)ccc1C(=O)OC [CP-A16, methyl 2-acrylamido-4-(pyridin-4-yl)benzoate]
activation | CCC(=O)Nc1cc(-c2ccnnc2)sc1C(=O)OC [ZNL-06-123]
